Source: ChEMBL document CHEMBL2073824, “Mechanism of the pharmacokinetic interaction between methotrexate and benzimidazoles: potential role for breast cancer resistance protein in clinical drug-drug interactions” (Cancer Res, 2004)
Each block holds one compound with its values, some of them ahead of it.

What was measured:
[1] = target: T1, Broad substrate specificity ATP-binding cassette transporter ABCG2 (Homo sapiens, UniProt Q9UNQ0); assay: TP_TRANSPORTER: uptake in membrane vesicle from BCRP-expressing Sf9 cells; format: functional, cell membranes
T1 sequence (Q9UNQ0 whole entry): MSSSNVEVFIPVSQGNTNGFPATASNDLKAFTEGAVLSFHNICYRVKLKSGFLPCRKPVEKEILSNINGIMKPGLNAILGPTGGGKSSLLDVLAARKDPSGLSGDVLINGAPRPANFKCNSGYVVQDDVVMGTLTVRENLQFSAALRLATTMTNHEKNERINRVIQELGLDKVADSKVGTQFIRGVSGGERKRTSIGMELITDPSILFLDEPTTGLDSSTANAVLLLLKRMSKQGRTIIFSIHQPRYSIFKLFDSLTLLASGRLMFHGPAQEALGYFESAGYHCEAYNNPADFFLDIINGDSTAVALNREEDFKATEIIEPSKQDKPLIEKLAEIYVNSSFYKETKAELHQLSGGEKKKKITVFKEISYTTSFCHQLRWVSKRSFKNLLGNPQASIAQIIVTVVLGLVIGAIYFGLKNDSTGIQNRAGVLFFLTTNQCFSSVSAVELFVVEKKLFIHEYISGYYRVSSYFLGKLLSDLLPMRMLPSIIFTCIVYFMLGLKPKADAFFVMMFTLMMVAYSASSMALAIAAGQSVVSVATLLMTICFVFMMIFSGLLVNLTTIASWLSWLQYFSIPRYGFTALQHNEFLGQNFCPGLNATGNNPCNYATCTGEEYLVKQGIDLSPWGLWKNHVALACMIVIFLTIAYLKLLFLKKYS

[2] = target: T2, Broad substrate specificity ATP-binding cassette transporter ABCG2 (Mus musculus, UniProt Q7TMS5); assay: TP_TRANSPORTER: transepithelial transport in Bcrp-expressing MDCKII cells; format: functional, cell-based; conditions: dog, mdck-ii
T2 sequence (Q7TMS5 whole entry): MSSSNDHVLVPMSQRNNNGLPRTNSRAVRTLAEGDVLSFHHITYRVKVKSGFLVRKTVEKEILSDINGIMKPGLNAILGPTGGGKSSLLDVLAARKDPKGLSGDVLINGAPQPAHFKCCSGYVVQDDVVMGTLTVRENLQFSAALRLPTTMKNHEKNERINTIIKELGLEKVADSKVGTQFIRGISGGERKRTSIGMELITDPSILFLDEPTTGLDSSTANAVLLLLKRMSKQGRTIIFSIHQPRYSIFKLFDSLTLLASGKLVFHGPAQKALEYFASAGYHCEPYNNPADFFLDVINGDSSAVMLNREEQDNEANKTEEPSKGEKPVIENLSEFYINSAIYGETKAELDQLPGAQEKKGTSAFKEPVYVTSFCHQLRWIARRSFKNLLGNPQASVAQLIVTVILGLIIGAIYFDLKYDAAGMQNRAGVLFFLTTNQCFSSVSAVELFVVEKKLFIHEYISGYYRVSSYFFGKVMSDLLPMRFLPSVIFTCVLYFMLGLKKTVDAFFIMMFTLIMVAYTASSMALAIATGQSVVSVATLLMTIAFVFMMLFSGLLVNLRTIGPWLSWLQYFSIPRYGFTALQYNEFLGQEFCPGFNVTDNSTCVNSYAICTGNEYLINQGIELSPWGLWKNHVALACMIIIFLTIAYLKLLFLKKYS

[3] = target: T1, Broad substrate specificity ATP-binding cassette transporter ABCG2; assay: TP_TRANSPORTER: inhibition of MTX uptake in membrane vesicle from BCRP-expressing Sf9 cell; format: functional, cell membranes

Activity [1]: substrate []
Compound: CN(Cc1cnc2nc(N)nc(N)c2n1)c1ccc(C(=O)N[C@@H](CCC(=O)O)C(=O)O)cc1 [METHOTREXATE]

Activity [2]: substrate []
Compound: CC[C@@]1(O)C(=O)OCc2c1cc1n(c2=O)Cc2cc3c(CN(C)C)c(O)ccc3nc2-1 [TOPOTECAN]

IC50 ([3]; read-out: IC50): 10 µM
Km [2]: substrate [Km=0.1-0.2mM]
Compound: COc1ccnc(C[S+]([O-])c2nc3ccc(OC(F)F)cc3[nH]2)c1OC (stereo not given) [PANTOPRAZOLE]

IC50 ([3]; sf9): inhibitor [IC50=10-50uM]
Compound: COc1ccc2[nH]c([S+]([O-])Cc3ncc(C)c(OC)c3C)nc2c1 (stereo not given) [OMEPRAZOLE]
